In the assay the test system is Cyclocephala immaculata. The assay is described as follows: Watering test with beetle larvae (Example 2). It is filed as in vivo. The conditions noted are these: L3 larvae, watering, (I-1) 600, azadirachtin 60, (I-1)+azadirachtin 600+60, trichlorfon 4529 g of active compound/ha. An excerpt: Beetle larvae (grubs) are important lawn pests. On the one hand, they feed on grass roots, damaging them directly, on the other hand they are a favoured food for birds which, searching for grubs, destroy the turf. For treatment against grubs, infested lawns are usually watered with insecticidal compositions. This type of treatment is emulated in the laboratory by Example 2.
To prepare a suitable active compound preparation, a commercial formulation of active compound or active compound combination is mixed with water until the desired concentration is reached. Pots with soil substrate were watered with the following active compound preparations: • 1. untreated • 2. compound (I-1) as SL 200, 600 g of active compound/ha • 3. azadirachtin, 60 g of active compound/ha • 4. compound (I-1) as SL 200+azadirachtin, 600+60 g of active compound/ha • 5. positive control: trichlorfon 4529 g of active compound/ha
L3 larvae of Cyclocephala immaculata were placed onto the pots. After 1, 4, 7, 14 days, the survival rate was determined, and this was used to calculate the efficacy of the compositions. 100% means that all grubs were killed, 0% means no activity.

Molecules are shown by their SMILES.

For `COP(=O)(OC)C(O)C(Cl)(Cl)Cl` (stereo not shown) [trichlorfon], the “Effect on day 1 in %” value (day 1) was 0%. Moreover, the “Effect on day 4 in %” value (day 4) was 17%. The “Effect on day 7 in %” value (day 7) is reported as 29%. Further, under “day 14”, the “Effect on day 14 in %” value is 50%.

Values taken from patent publication US8653110B2, “Active compound combination comprising azadirachtin and a substituted enaminocarbonyl compound” (Bayer CropScience AG, priority 2010, dated 2014).
